{
  "source": "patent US10759994B2",
  "about": "“Luminogenic transition metal-based pyridyl complex and its use” (City University of Hong Kong, priority 2016, dated 2020)",
  "key": {"[1]": {"details": "aerated aqueous solution, λex=455 nm; cited from earlier work"}, "HeLa cells": {"system": "HeLa cells", "type": "cell-based", "details": "BCN-C10 pretreatment (200 μM, 1 h), complex 40 μM", "source_text": "The results particularly highlight the potential of the luminogenic transition metal-based polypyridyl complexes of the present invention for bioorthogonal labeling. […] Importantly, although the cellular uptake of complex 2b was substantially higher, it was much less cytotoxic than complex 4b toward the pretreated cells. […] The results also highlight the potential therapeutic use of intracellular bioorthogonal coupling reactions in activating the cytotoxicity of metallo drugs.\nFor determining the cytotoxicity of complexes 1 b 5b, HeLa cells were seeded in a 96-well flat-bottomed microplate (about 10,000 cells well^−1) in growth medium (100 μL) and incubated at 37° C. under a 5% CO2 atmosphere for 24 h. The cells were then incubated in either blank medium or growth medium/DMSO (99:1, v/v) (100 μL) containing BCN-C10 (200 μM) in the dark at 37° C. under a 5% CO2 atmosphere for 1 h. The medium was then removed, the cell layer was washed with PBS, and further incubated in growth medium/DMSO (99:1, v/v) (100 μL) containing the ruthenium(II) complexes (40 μM) in the dark at 37° C. under a 5% CO2 atmosphere for 6, 12, or 24 h. Wells containing untreated cells were used as blank control. The microplate was incubated at 37° C. under a 5% CO2 atmosphere for another 4 h. The growth medium was then removed, and DMSO (200 μL) was added to each well. The microplate was further incubated for 15 min. The absorbance of the solutions at 570 nm was measured with a SPECTRAmax 340 microplate reader."}, "[2]": {"experiment": "SPANC reaction kinetics with BCN—OH by UV/Vis absorption spectroscopy", "type": "physicochemical", "details": "reaction with BCN—OH in MeOH at 298 K", "protocol": "The reactivity of the iridium(III) and ruthenium(II) pyridyl complexes toward a strained alkyne derivative BCN—OH in MeOH at 298 K was studied. The second-order rate constants (k2) of the strain-promoted alkyne-nitrone cycloaddition (SPANC) reaction of complexes 1a-5b are shown in Tables 3 and 4, respectively. The k2 values of the iridium(III) complexes 1a, 2a and 3a and the ruthenium(II) complexes 1b, 2b, 3b, 4b, and 5b were determined to be 0.116-0.238 and 0.078-3.06 M^−1 s^−1, respectively, which are about 1.95-76.5 times that of the free ligand bpy-nitrone-Me (k2=0.040 M^−1 s^−1). This is attributed to the electron-withdrawing effects of the positively-charged metal centers. […] The accelerated reaction kinetics is assumed to originate from the presence of the more electron-withdrawing phenyl ring at the N-position of the nitrone moiety. Thus, the accelerated reaction kinetics render complexes 1a-5b highly advantageous bioorthogonal probes for biomolecules modified with a strained alkyne moiety.\nMore specifically, the SPANC reaction kinetics of complexes 1a 5b was studied by UV/Ms absorption spectroscopy. For the ligand bpy-nitrone-Me and the iridium(III) complexes 1a-3a, the k2 values were measured under pseudo first order conditions with a 25- to 100-fold excess of BCN—OH in MeOH at 298 K. The reaction process was followed by monitoring the exponential decay of the absorbance at 306-342 nm upon addition of BCN—OH. The final concentrations of the nitrone compounds were 10 μM and those of BCN—OH ranged from 0.25 to 1.0 mM. For the ruthenium(II) complexes 1b-5b, the k2 values were determined under pseudo first order conditions with a 50- to 200-fold excess of BCN—OH in MeOH at 298 K. The reaction process was monitored by following the exponential decay of the absorbance at 329 nm. The final concentrations of the complexes were 10 μM and those of BCN—OH ranged from 0.5 to 2.0 mM. The data were fitted to a single-exponential equation to give the observed rate constants (kobs), which were plotted against the concentrations of BCN—OH to obtain the k2 from the slope of the plots."}},
  "data": [
    {"smiles": "[Cl][Ru][Cl].c1ccc(-c2ccccn2)nc1.c1ccc(-c2ccccn2)nc1.c1ccc(-c2ccccn2)nc1", "note": "[[Ru(bpy)3]Cl2]", "values": [
      {"measurement": "ϕem of standard solution", "setting": "[1]", "result": 0.028}
    ]},
    {"smiles": "Cc1ccnc(-c2cc(/C=[N+](/C)[O-])ccn2)c1.F[P-](F)(F)(F)(F)F.F[P-](F)(F)(F)(F)F.[Ru+2].c1ccc(-c2ccccn2)nc1.c1ccc(-c2ccccn2)nc1", "note": "[Complex 1b, [Ru(bpy)2(bpy-nitrone-Me)](PF6)2]", "values": [
      {"measurement": "Cell viability with BCN-C10 pretreatment", "setting": "HeLa cells", "result": "maintained good biocompatibility"}
    ]},
    {"smiles": "Cc1ccnc(-c2cc(C=[N+](C)[O-])ccn2)c1", "note": "[bpy-nitrone-Me, 4-((Methyl(oxido)imino)methyl)-4′-methyl-2,2′-bipyridine]", "values": [
      {"measurement": "Second-order rate constants (k2)", "setting": "[2]", "result": 0.040, "unit": "M⁻¹ s⁻¹"}
    ]}
  ]
}
